Molecules are shown by their SMILES.

The source of these data is patent US20260265055A1, “Sulfine-Based Compounds for Generating Hydrogen Persulfide” (Brown University, priority 2023, published 2026).

Assay [1] can be described thus: Kinetic study of the reaction between TTS and H2S (UV-Vis, 380 nm). The assay is classed as physicochemical. Set-up: unit not given here. Conditions: TTS 50 μM, Na2S 5 mM, PBS pH 7.4, room temperature; average of 3 trials. The protocol:
FIG. 1A depicts UV-Vis absorbance spectra changes of the reaction between TTS (100 μM) and H2S (200 μM) over 1 min intervals. FIG. 1B depicts representative time-dependent [TTS] changes based on UV-Vis absorption changes at 380 nm of the reaction between TTS (50 μM) and Na2S (5 mM). FIG. 1C depicts representative time-dependent −ln([TTS]/[TTS]0) changes based on UV-Vis absorption changes at 380 nm of the reaction between TTS (50 μM) and Na2S (5 mM). […] See Kolb, H. C. et al., Click chemistry: diverse chemical function from a few good reactions. Angew. Chem. Int. Ed. 2001, 40, 2004-2021.
Kinetic study of the reaction between TTS and H2S: TTS (10 μL, 10 mM in DMSO solution, final concentration=50 μM) and Na2S (20 μL, 500 mM in MilliQ H2O, final concentration=5 mM), reacted in PBS buffer (50 mM, pH=7.4) (2 mL) at room temperature. The kinetics were detected by UV-Vis absorbance spectrum (λ=380 nm) based on the decrease of TTS. This reaction can be seen as a pseudo-first order reaction; the second-order k constant (k) was calculated by: […]
The final k reported above was calculated by taking the average of the k values from 3 trials. • To determine [TTS] at each time point: […]

Assay [2] can be described thus: Monitoring H2S2 formation from the TTS-TAGDD hybrid compound 3 (SSP4, 12 h). As to conditions: 25 μM compound only, over 12 hours. The protocol:
Monitoring H2S2 formation from the TTS-TAGDD hybrid compound 3: TTS and 3 were prepared as 1 mM solutions in DMSO. L-cysteine and Na2S2 were prepared at 4 mM and 1 mM in MilliQ H2O, respectively. SSP4 was dissolved in DMSO to obtain a 200 μM stock solution. CTAB was dissolved in ethanol to yield a 2 mM stock solution. 50 mM PBS buffer (pH 7.4) was added to individual wells of a black polystyrene, flat-bottomed clear 96-well plate, followed by TTS (25 μM) or 3 (25 μM) then cysteine (100 μM) or Na2S2 (25 μM). Samples were mixed by pipetting up and down and incubated in the dark at room temperature (rt) for 30 min. Next, CTAB (50 μM) was added to all wells followed by SSP4 (5 μM), and samples were mixed by pipetting up and down. Samples were then incubated in the dark at room temperature for another 30 min before being measured on a Molecular Devices SpectraMax iD3 Multi-Mode Microplate Reader (fluorescence mode; kinetics measurement type; emission 535 nm; excitation 485 nm; integration time […], low PMT sensitivity, attenuation 1, read height 1.00 mm; total run time: 12 hours; 25 cycles; interval: 0.5 hours). Data was graphed as a time dependent fluorescence response, with F0 as the SSP4 only condition. The fluorescence of Na2S2 over time was not represented in the line graph presented due to the compound's known instability. Data obtained from the 12 h time point including from Na2S2 was also represented in a bar graph for greater clarity. Results were expressed as mean±SEM (n=3).

As to `COC(=O)c1ccc(=S=O)sc1` [TTS, 2H-thiopyran-2-thione sulfine], the “second-order rate constant k2 of the reaction between TTS and H2S” value in assay [1] is on record as 2.7. The SSP4 fluorescence result in assay [2] is on record as “did not give any notable fluorescence”.
